Laboratory results as given in ChEMBL document CHEMBL1201862, “PubChem BioAssay data set” (2004).
Calls of active or inactive are those of the source.

How the values were obtained:
[1] = target: Dual specificity protein phosphatase 3 (Homo sapiens, UniProt P51452); test: SAR VHR1 Fluorescent Assay for In Vitro dose response studies Set 2. [Related pubchem assays (depositor defined):AID1654, AID1661, AID1878]; format: functional
[2] = target: T1, Tyrosine-protein phosphatase non-receptor type 7 (Homo sapiens, UniProt P35236); test: SAR analysis of chemical inhibitors of HePTP using a Fluorescent assay - Set 2. [Related pubchem assays (depositor defined):AID1059, AID1077, AID1661, AID2085, AID521]; format: functional
T1 sequence (P35236 whole entry): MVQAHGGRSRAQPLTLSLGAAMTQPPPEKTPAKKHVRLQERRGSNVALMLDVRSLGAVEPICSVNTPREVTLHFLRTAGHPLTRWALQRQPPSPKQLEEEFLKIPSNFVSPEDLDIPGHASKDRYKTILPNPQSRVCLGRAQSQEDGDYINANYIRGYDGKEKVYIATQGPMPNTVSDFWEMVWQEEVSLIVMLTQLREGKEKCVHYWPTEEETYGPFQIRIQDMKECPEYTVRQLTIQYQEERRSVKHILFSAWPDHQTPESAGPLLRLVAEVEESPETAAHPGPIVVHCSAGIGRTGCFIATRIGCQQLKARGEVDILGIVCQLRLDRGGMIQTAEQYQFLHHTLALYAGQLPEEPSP

[3] = target: T2, E3 ubiquitin-protein ligase XIAP (Homo sapiens, UniProt P98170); test: small molecules displacing peptide from XIAP – biochemical, IAP family, fluorescence polarization (AID 1018); format: functional
T2 sequence (P98170 whole entry): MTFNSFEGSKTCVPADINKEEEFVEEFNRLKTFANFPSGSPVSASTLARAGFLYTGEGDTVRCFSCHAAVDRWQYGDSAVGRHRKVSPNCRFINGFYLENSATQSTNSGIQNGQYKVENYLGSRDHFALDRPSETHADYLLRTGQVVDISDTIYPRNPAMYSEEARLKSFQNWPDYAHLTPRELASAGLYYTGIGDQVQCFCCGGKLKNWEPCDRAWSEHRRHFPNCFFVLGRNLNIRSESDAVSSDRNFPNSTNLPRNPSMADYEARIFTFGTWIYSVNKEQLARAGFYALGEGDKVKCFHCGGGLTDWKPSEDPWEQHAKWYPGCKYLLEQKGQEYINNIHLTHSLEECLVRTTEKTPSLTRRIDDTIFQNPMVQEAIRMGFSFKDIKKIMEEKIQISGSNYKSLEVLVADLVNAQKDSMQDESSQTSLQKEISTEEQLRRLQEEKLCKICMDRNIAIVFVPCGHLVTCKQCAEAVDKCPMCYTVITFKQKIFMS

[4] = viability loss in HepG2 hepatoma cells – cell-based, ATP luminescence, cherry-pick, activator set 2, cytotoxicity control, dose response (AID 1053143); format: functional
[5] = target: T2, E3 ubiquitin-protein ligase XIAP; test: Counter Screen using XIAP-Bir3 for Chemical Antagonists of Bir1/2 domains of IAP-family anti-apoptotic proteins. [Related pubchem assays (depositor defined):AID1018, AID1449, AID1514, AID1638, AID1749, AID1750, AID488957, AID488963]
[6] = target: Scavenger receptor class B member 1 (Mus musculus, UniProt Q61009); test: mouse SR-BI DiI-HDL uptake blockers – ldlA[mSR-BI] cells, fluorescence, cherry pick, dose response (AID 493194); format: functional, cell-based;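 note: cellular uptake of fluorescent DiI-labeled HDL measured as cell fluorescence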
Chain of Scavenger receptor class B member 1 (Q61009 whole entry): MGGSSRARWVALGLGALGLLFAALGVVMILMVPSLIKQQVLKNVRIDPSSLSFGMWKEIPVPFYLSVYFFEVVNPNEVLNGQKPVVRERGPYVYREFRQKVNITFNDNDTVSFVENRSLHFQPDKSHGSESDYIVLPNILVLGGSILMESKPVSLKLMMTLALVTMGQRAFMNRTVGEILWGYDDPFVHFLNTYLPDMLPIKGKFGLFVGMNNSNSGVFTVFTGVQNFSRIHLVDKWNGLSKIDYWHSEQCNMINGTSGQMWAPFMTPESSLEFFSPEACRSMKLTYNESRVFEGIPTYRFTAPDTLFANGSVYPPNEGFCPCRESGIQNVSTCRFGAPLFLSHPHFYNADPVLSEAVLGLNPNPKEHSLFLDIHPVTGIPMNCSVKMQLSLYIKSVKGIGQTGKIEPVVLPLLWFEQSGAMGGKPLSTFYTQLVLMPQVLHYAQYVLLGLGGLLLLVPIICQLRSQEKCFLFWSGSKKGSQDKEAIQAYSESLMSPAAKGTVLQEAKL

[7] = target: T3, Short transient receptor potential channel 4 (Mus musculus, UniProt Q9QUQ5); test: calcium entry via TRPC4 opening agents – cell-based, HEK293 TRPC4/mu-opioid, Fluo-4 calcium, dose response (AID 434937); format: functional
T3 sequence (Q9QUQ5 whole entry): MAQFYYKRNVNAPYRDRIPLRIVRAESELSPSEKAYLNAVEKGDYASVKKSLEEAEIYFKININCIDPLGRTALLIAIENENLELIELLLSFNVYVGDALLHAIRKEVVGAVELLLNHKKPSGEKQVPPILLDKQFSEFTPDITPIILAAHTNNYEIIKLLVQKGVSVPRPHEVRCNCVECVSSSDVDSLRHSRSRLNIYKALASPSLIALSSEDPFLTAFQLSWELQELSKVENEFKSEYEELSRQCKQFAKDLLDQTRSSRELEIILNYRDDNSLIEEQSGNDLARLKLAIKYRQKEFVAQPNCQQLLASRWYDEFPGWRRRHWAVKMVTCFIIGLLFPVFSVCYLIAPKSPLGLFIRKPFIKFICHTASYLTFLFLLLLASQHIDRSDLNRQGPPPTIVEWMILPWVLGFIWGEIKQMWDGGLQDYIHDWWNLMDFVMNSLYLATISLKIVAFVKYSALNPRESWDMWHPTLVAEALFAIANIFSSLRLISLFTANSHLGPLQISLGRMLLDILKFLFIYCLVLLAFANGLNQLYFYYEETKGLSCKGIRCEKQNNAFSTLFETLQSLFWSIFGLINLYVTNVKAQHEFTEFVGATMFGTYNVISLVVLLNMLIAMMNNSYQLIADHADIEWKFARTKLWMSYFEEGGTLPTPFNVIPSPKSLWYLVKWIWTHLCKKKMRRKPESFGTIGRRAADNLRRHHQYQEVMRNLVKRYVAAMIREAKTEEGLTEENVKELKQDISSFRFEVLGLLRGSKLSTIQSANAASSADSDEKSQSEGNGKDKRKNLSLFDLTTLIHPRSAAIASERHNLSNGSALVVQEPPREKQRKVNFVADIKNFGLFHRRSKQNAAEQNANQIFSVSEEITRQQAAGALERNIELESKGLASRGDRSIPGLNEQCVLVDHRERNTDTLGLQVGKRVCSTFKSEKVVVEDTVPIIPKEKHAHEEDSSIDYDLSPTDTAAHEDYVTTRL

BJ [8] = test: BJ-TERT-LT-ST fibroblast viability loss – cell-based, RAS-independent, luminescence, dose response (AID 1935); format: functional; settings: Homo sapiens;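 note: BJ fibroblasts immortalized with TERT plus LT and ST oncogenes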
BJ [9] = test: BJ-TERT fibroblast viability loss – cell-based, RAS-independent, luminescence, dose response (AID 1933); format: functional; settings: Homo sapiens
[10] = DRD fibroblast viability loss – cell-based, non-viral oncogenic, luminescence, dose response (AID 1934); format: functional; settings: Homo sapiens
[11] = Trypanosoma cruzi growth suppression in host cells – NIH3T3 host cells, beta-gal luminescence, confirmation (AID 2044); format: functional, cell-based;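 note: intracellular parasites grown in NIH/3T3 mouse fibroblasts as host cells; luminescent beta-galactosidase reporter signal from transgenic T. cruzi replicating inside host cells; inhibitors lower the luminescence signal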
[12] = NIH3T3 cell viability loss – ATP luminescence, mouse fibroblasts, counter-screen, dose response (AID 2010); format: functional, cell-based;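 note: cells exposed to compound for about 90 hours before reading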
BJ [13] = test: cells; format: functional, cell-based; settings: Homo sapiens
Procathepsin L = Procathepsin L (Homo sapiens, UniProt P07711)
Chain of Procathepsin L (P07711 whole entry): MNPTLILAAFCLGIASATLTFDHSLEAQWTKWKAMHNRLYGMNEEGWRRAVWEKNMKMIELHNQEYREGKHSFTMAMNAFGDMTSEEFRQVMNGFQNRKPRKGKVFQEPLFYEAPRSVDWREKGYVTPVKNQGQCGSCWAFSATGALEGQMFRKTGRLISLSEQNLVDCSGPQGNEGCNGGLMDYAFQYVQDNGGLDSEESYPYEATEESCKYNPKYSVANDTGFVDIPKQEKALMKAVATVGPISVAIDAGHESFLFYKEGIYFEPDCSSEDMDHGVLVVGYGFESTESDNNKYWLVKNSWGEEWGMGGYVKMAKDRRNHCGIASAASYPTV

Aspartyl aminopeptidase = Aspartyl aminopeptidase (Plasmodium falciparum 3D7, UniProt Q8I2J3)
Chain of Aspartyl aminopeptidase (Q8I2J3 whole entry): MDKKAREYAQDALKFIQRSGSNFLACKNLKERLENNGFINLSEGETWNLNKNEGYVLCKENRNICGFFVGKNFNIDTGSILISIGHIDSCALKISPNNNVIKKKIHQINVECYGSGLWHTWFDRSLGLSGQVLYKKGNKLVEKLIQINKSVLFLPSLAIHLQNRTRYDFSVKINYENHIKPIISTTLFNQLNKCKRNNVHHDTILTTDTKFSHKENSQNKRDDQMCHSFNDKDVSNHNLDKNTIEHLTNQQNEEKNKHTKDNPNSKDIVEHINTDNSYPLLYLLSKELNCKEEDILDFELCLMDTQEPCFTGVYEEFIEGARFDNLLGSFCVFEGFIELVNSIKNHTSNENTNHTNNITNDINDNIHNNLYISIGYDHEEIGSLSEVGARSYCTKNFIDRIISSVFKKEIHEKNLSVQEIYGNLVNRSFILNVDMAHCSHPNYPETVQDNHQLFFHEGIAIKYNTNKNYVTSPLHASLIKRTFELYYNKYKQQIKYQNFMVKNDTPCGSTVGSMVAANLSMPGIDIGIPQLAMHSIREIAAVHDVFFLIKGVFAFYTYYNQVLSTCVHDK

[14] = target: Lysosomal acid glucosylceramidase (Homo sapiens, UniProt P04062); test: Dose response cell-based high throughput screening assay to identify enhancers of beta-glucosidase activity. [Related pubchem assays: 784 ]; format: functional
Chain of Lysosomal acid glucosylceramidase (P04062 whole entry): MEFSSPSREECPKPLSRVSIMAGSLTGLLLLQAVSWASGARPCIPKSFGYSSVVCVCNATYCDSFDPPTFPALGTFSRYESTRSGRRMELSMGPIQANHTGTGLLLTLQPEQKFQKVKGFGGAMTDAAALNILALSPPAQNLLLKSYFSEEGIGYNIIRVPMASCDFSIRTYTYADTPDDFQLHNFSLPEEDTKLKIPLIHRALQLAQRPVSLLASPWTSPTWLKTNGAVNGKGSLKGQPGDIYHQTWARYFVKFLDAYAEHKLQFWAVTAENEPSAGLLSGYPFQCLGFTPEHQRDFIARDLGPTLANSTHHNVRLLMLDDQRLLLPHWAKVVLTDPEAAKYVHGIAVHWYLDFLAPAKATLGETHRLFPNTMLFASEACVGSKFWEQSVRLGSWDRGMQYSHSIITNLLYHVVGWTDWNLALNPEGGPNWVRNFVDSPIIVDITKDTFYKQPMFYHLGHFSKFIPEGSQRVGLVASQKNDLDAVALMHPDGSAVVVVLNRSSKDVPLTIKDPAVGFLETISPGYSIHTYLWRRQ

Vero = test: mammalian cell viability reduction – secondary assay, cytotoxicity control for West Nile virus antiviral project, dose response (AID 1650); format: functional; settings: Chlorocebus sabaeus
Hexokinase HKDC1 = target: T4, Hexokinase HKDC1 (Homo sapiens, UniProt Q2TB90); test: inhibition of HKDC1 glucose phosphorylation – biochemical, W721R variant, dose response (AID 504729); format: functional
T4 sequence (Q2TB90 whole entry): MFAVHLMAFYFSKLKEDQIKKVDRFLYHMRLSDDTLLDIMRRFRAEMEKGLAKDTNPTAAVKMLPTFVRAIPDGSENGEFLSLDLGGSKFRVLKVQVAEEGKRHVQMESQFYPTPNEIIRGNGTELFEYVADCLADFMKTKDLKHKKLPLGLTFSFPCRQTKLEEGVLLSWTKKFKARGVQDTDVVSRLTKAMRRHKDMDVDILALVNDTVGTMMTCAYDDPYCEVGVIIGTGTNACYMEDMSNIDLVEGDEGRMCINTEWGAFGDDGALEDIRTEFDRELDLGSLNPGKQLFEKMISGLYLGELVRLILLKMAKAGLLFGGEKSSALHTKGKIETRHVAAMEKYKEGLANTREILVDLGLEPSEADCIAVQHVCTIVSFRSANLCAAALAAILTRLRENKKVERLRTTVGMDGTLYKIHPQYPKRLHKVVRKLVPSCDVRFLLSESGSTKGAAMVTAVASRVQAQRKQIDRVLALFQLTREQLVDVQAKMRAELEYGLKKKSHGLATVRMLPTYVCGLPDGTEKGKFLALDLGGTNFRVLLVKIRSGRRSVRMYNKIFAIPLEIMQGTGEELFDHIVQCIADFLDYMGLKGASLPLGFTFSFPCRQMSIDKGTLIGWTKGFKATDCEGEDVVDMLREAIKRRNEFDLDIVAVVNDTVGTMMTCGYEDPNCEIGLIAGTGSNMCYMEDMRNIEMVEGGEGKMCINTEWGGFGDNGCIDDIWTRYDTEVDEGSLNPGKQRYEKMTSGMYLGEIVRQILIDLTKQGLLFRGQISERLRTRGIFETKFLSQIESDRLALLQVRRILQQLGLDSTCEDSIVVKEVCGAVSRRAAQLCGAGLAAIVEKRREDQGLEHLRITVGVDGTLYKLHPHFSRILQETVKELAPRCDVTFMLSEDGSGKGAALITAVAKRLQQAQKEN

Genome polyprotein = Genome polyprotein (dengue virus type 2, UniProt P29990); test: flavivirus cap methylation enzyme inhibition – biochemical, confirmation dose response, primary screen (AID 588689); format: functional
Chain of Genome polyprotein (P29990 2492-3391 limits assumed): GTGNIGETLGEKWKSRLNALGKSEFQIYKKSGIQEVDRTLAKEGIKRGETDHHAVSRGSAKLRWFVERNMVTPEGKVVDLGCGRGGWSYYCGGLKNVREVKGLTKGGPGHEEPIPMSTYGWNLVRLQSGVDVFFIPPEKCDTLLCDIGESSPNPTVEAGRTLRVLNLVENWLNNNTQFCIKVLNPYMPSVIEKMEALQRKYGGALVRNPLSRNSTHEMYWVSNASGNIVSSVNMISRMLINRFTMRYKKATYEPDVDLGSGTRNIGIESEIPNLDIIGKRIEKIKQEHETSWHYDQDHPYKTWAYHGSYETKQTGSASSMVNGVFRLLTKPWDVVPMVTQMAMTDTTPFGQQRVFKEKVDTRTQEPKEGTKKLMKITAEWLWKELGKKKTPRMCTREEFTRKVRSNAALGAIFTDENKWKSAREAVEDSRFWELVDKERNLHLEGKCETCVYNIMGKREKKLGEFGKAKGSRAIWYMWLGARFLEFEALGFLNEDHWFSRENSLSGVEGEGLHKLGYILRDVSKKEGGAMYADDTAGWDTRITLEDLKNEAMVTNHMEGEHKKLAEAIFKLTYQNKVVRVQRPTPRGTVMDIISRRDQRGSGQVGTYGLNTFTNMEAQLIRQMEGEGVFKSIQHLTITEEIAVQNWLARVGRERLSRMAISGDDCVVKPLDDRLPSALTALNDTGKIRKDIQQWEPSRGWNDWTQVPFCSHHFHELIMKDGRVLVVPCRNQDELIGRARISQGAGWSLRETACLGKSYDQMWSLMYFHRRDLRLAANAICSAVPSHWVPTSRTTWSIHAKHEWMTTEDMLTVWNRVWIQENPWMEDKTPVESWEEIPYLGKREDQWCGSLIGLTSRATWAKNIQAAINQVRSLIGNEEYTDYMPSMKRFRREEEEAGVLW

[15] = target: T5, Carboxy-terminal domain RNA polymerase II polypeptide A small phosphatase 1 (Homo sapiens, UniProt Q9GZU7); test: CTDSP1 inhibitors, concentration-response, biochemical, absorbance readout, ultra-high-throughput screen actives (AID 540297); format: functional
T5 sequence (Q9GZU7 whole entry): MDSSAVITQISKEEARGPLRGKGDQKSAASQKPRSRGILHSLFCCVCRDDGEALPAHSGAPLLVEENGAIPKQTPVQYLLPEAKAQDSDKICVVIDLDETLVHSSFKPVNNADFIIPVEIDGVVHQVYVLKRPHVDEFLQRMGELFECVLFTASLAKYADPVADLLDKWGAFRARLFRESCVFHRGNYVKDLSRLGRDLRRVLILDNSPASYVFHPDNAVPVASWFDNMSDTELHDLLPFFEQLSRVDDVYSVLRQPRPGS

Estrogen receptor beta [16] = target: T6, Estrogen receptor beta (Homo sapiens, UniProt Q92731); test: blockers of SRC-3 recruitment to ERβ – biochemical, ELISA, streptavidin-HRP readout, orthogonal assay, confirmation (AID 1060)
T6 sequence (Q92731 whole entry): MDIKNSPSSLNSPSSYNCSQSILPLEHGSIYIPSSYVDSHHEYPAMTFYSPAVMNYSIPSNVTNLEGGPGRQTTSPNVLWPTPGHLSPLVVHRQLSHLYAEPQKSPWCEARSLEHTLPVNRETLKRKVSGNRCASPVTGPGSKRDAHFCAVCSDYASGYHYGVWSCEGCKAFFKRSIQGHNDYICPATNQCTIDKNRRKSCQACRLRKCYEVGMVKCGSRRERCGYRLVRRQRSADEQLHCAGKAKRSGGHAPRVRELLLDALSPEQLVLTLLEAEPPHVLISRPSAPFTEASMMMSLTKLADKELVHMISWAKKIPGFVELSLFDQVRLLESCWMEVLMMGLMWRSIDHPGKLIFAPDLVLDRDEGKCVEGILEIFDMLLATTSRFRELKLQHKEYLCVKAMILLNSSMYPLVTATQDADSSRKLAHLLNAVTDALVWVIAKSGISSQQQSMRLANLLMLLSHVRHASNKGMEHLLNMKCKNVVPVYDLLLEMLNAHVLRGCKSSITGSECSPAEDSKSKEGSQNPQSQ

Estrogen receptor = Estrogen receptor (Homo sapiens, UniProt P03372);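 note: potency for inhibiting coactivator peptide recruitment to the receptor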
Chain of Estrogen receptor (P03372 whole entry): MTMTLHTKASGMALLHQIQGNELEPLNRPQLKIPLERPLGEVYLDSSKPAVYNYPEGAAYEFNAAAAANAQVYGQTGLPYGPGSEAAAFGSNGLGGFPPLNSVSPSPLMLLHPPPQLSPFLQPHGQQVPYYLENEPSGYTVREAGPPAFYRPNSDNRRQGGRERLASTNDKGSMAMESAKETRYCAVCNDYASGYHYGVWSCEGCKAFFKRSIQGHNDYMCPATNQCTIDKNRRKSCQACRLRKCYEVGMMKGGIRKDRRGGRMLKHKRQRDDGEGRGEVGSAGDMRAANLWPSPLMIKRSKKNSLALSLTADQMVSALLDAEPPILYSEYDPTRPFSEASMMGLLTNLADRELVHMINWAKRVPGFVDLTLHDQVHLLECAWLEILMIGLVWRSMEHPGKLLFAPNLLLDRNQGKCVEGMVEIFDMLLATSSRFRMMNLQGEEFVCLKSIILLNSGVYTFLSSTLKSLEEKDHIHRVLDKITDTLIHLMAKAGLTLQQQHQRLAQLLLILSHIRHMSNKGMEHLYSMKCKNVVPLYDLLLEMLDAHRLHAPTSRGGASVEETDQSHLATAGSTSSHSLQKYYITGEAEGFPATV

Estrogen receptor beta [17] = target: T6, Estrogen receptor beta
Bcl-2-like protein 10 = target: T7, Bcl-2-like protein 10 (Homo sapiens, UniProt Q9HD36); test: Bcl-B/TR3 peptide binding disruption – biochemical, fluorescence polarization, FITC-TR3 peptide, selectivity assay for Bfl-1 inhibitor project, primary screen (AID 748);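 note: fluorescence polarization from a fluorescein-labelled TR3 peptide binding purified Bcl-B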
T7 sequence (Q9HD36 whole entry): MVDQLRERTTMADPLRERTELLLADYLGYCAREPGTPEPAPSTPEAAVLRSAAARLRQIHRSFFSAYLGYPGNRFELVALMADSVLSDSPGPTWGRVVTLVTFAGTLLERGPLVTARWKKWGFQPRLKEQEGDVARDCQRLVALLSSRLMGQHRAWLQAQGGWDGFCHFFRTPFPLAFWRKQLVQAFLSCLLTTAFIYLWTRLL

[18] = target: T3, Short transient receptor potential channel 4; test: block of DAMGO-driven TRPC4 calcium entry – cell-based, HEK293 TRPC4/mu-opioid, Fluo-4 calcium, dose response (AID 434942); format: functional;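 note: potency of inhibitors blocking the TRPC4 calcium response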

Chain of Dual specificity protein phosphatase 3 (P51452 whole entry): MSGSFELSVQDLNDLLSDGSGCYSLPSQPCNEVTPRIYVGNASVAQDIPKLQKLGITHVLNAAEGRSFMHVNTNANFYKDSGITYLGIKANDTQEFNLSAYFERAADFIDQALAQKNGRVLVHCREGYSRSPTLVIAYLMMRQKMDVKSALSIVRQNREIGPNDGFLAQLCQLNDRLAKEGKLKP

For `CCCOc1ccc(C(=S)NCc2ccc(F)cc2)cc1`, the IC50 [1] was 15.1 µM (active) and the IC50 [2] was 19.5 µM (active).
With `COc1cc(OC)cc(-c2nc3cc(C)ccc3o2)c1` the IC50 [3] was > 100 µM (not active), the AC50 [4] was 26 µM (active) and the IC50 [5] was > 100 µM (inactive).
With `CCc1ccc(NC(=O)C2CCCN(S(=O)(=O)c3ccc4nc(O)ccc4c3)C2)cc1` (stereo unspecified) the AC50 [6] was 27.5 µM (active).
In the case of `Nc1c(C(=O)c2ccccc2)sc2nsc(SCCN3CCCC3)c12`, the EC50 [7] is reported as 5.96 µM (active), the EC50 (BJ [8]) is reported as 12.5 µM (active) and the EC50 (BJ [9]) is reported as 12.8 µM (active). The EC50 [10] was 15.1 µM (active), the EC50 [11] was 0.636 µM (active) and the EC50 [12] was 14.9 µM (active). The EC50 (BJ [13]) was 7.28 µM (active).
For `O=C(Nc1ccc(F)c(Cl)c1)Nn1cnnc1`, the IC50 (Procathepsin L) was > 59.6 µM (not active) and the IC50 (Aspartyl aminopeptidase) was 1.46 µM (active).
With `Cc1ccc(C)n1-c1ccc(C(=O)NCC2CCCO2)cc1` (stereo unspecified) the EC50 [14] was > 50 µM (not active).
In the case of `O=S(=O)(Nc1cc(Sc2cccc3cccnc23)c(O)c2ccccc12)c1ccccc1`, the EC50 (BJ [8]) is reported as > 75 µM (inconclusive), the EC50 (BJ [9]) is reported as 12.1 µM (inconclusive) and the EC50 [10] is reported as 16.1 µM (active). For the same compound, the EC50 (BJ [13]) was 22.1 µM (inconclusive) and the CC50 (Vero) was 6.77 µM (active).
For `N#Cc1sc2nc(C3CC3)cc(-c3ccc(Cl)cc3)c2c1N`, the AC50 [6] was 2.36 µM (active).
With `OC(Cn1cnnc1)c1ccccc1` (stereo unspecified) the IC50 (Procathepsin L) was > 59.6 µM (not active) and the IC50 (Aspartyl aminopeptidase) was 0.603 µM (active).
In the case of `COC1=CC(=O)C(C2CC(=O)c3c(O)cc(O)cc3O2)=CC1=O` (stereo unspecified), the IC50 (Hexokinase HKDC1) is reported as 11.5 µM (active) and the IC50 (Genome polyprotein) is reported as 9.23 µM (active).
In the case of `COc1ccc(OC)c(C(=S)NCc2ccc(F)cc2)c1`, the IC50 [1] is reported as 13.5 µM (active) and the IC50 [2] is reported as 8.78 µM (active).
In the case of `Cc1cc(Cl)ccc1OCC(=O)OC(C)C(=O)N(C)C` (stereo unspecified), the IC50 [15] is reported as 15.3 µM (active), the IC50 (Estrogen receptor beta [16]) is reported as < 0.023 µM (not active) and the IC50 (Estrogen receptor) is reported as 37 µM (not active). The IC50 (Estrogen receptor beta [17]) was 16.7 µM (active) and the IC50 (Bcl-2-like protein 10) was > 100 µM (inactive).
In the case of `O=C(O)c1cccc(N2C(=O)C3CC=C(Cl)CC3C2=O)c1` (stereo unspecified), the IC50 [15] is reported as 10.3 µM (active), the IC50 [3] is reported as > 100 µM (not active) and the IC50 [5] is reported as > 100 µM (inactive).
For `COc1ccc(-c2nnc(SC/C(O)=C(/C#N)C(C)=N)o2)cc1`, the IC50 (Estrogen receptor beta [16]) was 0.35 µM (not active), the IC50 (Estrogen receptor) was 30 µM (not active) and the IC50 (Estrogen receptor beta [17]) was 11.2 µM (active).
With `COc1ccc(C(c2nnnn2C2CCCC2)N2CCN(c3ccccc3)CC2)cc1` (stereo unspecified) the EC50 [18] was 5.31 µM (active).
In the case of `Cc1c(C)c2cc3c4c(oc3c(C)c2oc1=O)CCCC4`, the EC50 [14] is reported as > 50 µM (not active).
